Laboratory results taken from ChEMBL document CHEMBL1153175, “Pyrazole derived from (+)-3-carene; a novel potent, selective scaffold for sphingosine-1-phosphate (S1P(1)) receptor agonists” (Bioorg Med Chem Lett, 2010).
Activity calls are given as the source filed them. The calls are words filed in the database; no cut-off is given here.

What was measured:
[1] = target: T1, Sphingosine 1-phosphate receptor 1 (Homo sapiens, UniProt P21453); test: Agonist activity at human SIP1 receptor expressed in CHO cells by [35S]GTPgammaS binding assay; format: functional, cell-based
T1 sequence (P21453 whole entry): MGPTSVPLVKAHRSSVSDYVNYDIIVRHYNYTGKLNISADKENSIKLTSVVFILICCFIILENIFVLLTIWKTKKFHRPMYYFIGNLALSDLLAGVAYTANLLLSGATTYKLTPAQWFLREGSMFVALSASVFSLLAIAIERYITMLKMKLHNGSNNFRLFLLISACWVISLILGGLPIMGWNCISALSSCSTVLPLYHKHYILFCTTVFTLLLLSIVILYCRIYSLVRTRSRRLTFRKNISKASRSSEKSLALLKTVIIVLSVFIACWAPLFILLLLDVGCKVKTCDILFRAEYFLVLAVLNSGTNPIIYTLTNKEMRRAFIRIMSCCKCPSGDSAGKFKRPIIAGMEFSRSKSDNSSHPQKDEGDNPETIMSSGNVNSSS

[2] = target: T1, Sphingosine 1-phosphate receptor 1; conditions: CHO, at 10 µM
Description: Agonist activity at human SIP1 receptor expressed in CHO cells at 10 uM by [35S]GTPgammaS binding assay relative to S1P

[3] = target: T2, Sphingosine 1-phosphate receptor 3 (Homo sapiens, UniProt Q99500); test: Agonist activity at human SIP3 receptor at 10 uM by [35S]GTPgammaS binding assay relative to S1P; format: functional
T2 sequence (Q99500 whole entry): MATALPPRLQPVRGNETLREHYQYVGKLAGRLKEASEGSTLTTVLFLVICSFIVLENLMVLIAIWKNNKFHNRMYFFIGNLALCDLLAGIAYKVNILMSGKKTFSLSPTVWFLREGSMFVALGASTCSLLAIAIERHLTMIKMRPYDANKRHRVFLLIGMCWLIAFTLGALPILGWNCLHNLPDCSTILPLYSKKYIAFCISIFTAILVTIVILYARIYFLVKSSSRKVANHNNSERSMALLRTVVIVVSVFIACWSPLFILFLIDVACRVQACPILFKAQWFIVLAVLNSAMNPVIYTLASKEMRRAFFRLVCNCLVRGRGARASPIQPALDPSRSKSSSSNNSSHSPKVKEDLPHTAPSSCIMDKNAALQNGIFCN

[4] = target: T3, Sphingosine 1-phosphate receptor 4 (Homo sapiens) (UniProt O95977); test: Agonist activity at human SIP4 receptor at 10 uM by [35S]GTPgammaS binding assay relative to S1P; format: functional
T3 sequence (whole entry): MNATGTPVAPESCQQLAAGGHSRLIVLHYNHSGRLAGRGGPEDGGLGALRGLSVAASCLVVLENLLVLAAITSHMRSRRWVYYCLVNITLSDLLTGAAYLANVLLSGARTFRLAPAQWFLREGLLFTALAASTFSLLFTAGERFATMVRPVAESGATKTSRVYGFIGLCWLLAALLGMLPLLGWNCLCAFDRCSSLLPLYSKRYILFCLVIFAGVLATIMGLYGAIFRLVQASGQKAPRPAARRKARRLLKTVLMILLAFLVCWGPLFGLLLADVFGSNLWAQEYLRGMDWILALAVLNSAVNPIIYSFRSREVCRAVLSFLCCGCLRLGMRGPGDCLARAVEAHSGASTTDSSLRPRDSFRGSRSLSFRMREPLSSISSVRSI

[5] = target: T4, Sphingosine 1-phosphate receptor 5 (Homo sapiens, UniProt Q9H228); test: Agonist activity at human SIP5 receptor by [35S]GTPgammaS binding assay; format: functional
T4 sequence (Q9H228 whole entry): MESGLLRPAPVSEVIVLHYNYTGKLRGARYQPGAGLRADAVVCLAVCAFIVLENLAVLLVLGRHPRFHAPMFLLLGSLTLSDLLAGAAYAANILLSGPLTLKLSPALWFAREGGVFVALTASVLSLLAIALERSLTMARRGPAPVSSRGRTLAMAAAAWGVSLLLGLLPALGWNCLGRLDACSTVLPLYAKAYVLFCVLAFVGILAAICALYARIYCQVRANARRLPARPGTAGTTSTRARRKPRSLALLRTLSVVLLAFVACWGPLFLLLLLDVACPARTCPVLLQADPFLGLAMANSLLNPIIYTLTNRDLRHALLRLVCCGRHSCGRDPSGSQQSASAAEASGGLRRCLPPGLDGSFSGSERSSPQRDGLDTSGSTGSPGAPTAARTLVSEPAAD

[6] = target: T4, Sphingosine 1-phosphate receptor 5; test: Agonist activity at human SIP5 receptor at 10 uM by [35S]GTPgammaS binding assay relative to S1P; format: functional
[7] = target: T2, Sphingosine 1-phosphate receptor 3; test: Agonist activity at human SIP3 receptor by [35S]GTPgammaS binding assay; format: functional
[8] = target: T5, Sphingosine 1-phosphate receptor 4 (Homo sapiens, UniProt O95977); test: Agonist activity at human SIP4 receptor by [35S]GTPgammaS binding assay; format: functional
T5 sequence (O95977 whole entry): T3 sequence (whole entry)

Rattus norvegicus [9] = test: Reduction of lymphocytes count in Lewis rat blood at 3 mg/kg. po; format: functional, organism-based; parameters: dose 3 mg/kg
Rattus norvegicus [10] = test: Reduction of lymphocytes count in Lewis rat blood at 0.3 mg/kg. iv; format: functional, organism-based; parameters: dose 0.3 mg/kg
[11] = Chemical stability at pH >7 assessed as half life; format: physicochemical
Homo sapiens [12] = species: Homo sapiens; test: Selectivity ratio, EC50 for human S1P1 receptor over EC50 for human S1P5 receptor
Homo sapiens [13] = species: Homo sapiens; test: Selectivity ratio, EC50 for human S1P1 receptor over EC50 for human S1P4 receptor

Structure (SMILES) | EC50 [1] [µM] | Emax [2] [%] | Emax [3] [%] | Emax [4] [%] | EC50 [5] [µM] | Emax [6] [%] | EC50 [7] [µM] | EC50 [8] [µM] | half-life [11] [h] | Ratio EC50 (Homo sapiens [12]) | Ratio EC50 (Homo sapiens [13]) | Activity (Rattus norvegicus [9]) | Activity (Rattus norvegicus [10])
Cc1nn(C(=O)/C=C/c2ccccc2Cl)c2c1[C@H]1[C@@H](C2)C1(C)C | 0.016 | 89 | 69 | -19 | > 10 | -19 | > 1 | > 10 |  |  |  |  | 
Cc1nn(S(=O)(=O)/C=C/c2ccccc2)c2c1[C@H]1[C@@H](C2)C1(C)C | > 10 | 7 | -2 | -19 | > 10 | -1 | > 10 | > 10 |  |  |  |  | 
Cc1nn(C(=O)/C=C/c2ccc(-c3ccccc3)cc2)c2c1[C@H]1[C@@H](C2)C1(C)C | 0.28 | 76 | 8 | 1 | > 10 | 22 | > 10 | > 10 |  |  |  |  | 
Cc1nn(C(=O)/C=C/c2ccc(S(N)(=O)=O)cc2)c2c1[C@H]1[C@@H](C2)C1(C)C | 0.119 | 68 | 68 | -22 | > 10 | 16 | > 1 | > 10 |  |  |  |  | 
Cc1nn(C/C=C/c2ccccc2)c2c1[C@H]1[C@@H](C2)C1(C)C | > 10 | 45 | 14 | 10 | > 10 | 10 | > 10 | > 10 |  |  |  |  | 
Cc1nn(C(=O)/C=C/C2CCCCC2)c2c1[C@H]1[C@@H](C2)C1(C)C | > 10 | 18 | 3 | 15 | > 10 | 29 | > 10 | > 10 |  |  |  |  | 
Cc1nn(C(=O)CCc2ccccc2)c2c1[C@H]1[C@@H](C2)C1(C)C | 0.086 | 55 | 38 | 0 | > 10 | 26 | > 10 | > 10 |  |  |  |  | 

More lines, main results first:

EC50 [1] [µM] | Emax [2] [%] | Emax [3] [%] | Emax [4] [%] | EC50 [5] [µM] | Emax [6] [%] | EC50 [7] [µM] | EC50 [8] [µM] | half-life [11] [h] | Ratio EC50 (Homo sapiens [12]) | Ratio EC50 (Homo sapiens [13]) | Structure (SMILES) | Activity (Rattus norvegicus [9]) | Activity (Rattus norvegicus [10])
> 10 | 25 | 44 | -6 | > 10 | 2 | > 10 | > 10 |  |  |  | CCCCCCC(=O)n1nc(C)c2c1C[C@@H]1[C@H]2C1(C)C |  | 
 |  | 94 | -2 | 1.76 | 90 | > 1 | > 10 |  |  |  | Cc1nn(C(=O)/C=C/c2ccccc2)c2c1[C@H]1[C@@H](C2)C1(C)C |  | 
0.011 | 92 | 84 | 21 | 0.082 | 76 | 1.35 | 0.116 |  |  |  | Cc1nn(C(=O)/C=C/c2cccc(S(N)(=O)=O)c2)c2c1[C@H]1[C@@H](C2)C1(C)C |  | 
0.026 | 65 | 46 | 17 | 0.325 | 56 | > 10 | > 10 |  |  |  | Cc1nn(C(=O)/C=C/c2cccc(C(F)(F)F)c2)c2c1[C@H]1[C@@H](C2)C1(C)C |  | 
0.007 | 92 | 83 | 32 | 0.13 | 93 | 0.345 | 0.1 | 3 |  |  | Cc1nn(C(=O)/C=C/c2ccncc2)c2c1[C@H]1[C@@H](C2)C1(C)C | inactive | inactive
0.017 | 90 | 61 | 30 | 0.345 | 87 | > 1 | 0.1 |  |  |  | Cc1nn(C(=O)/C=C/c2cccnc2)c2c1[C@H]1[C@@H](C2)C1(C)C |  | 
0.002 | 90 | 84 | 28 | 0.505 | 130 | 0.995 | 0.56 |  | 250 | 250 | Cc1nn(C(=O)/C=C/c2cccc3[nH]ccc23)c2c1[C@H]1[C@@H](C2)C1(C)C | inactive | inactive
0.025 | 89 | 46 | 30 | 0.9 | 80 | > 10 | > 10 |  |  |  | COc1ccc(/C=C/C(=O)n2nc(C)c3c2C[C@@H]2[C@H]3C2(C)C)cc1OC |  | 
